Literature values, collected in Sander's compilation of Henry's law constants.
Several values for one entry are separate records, joined by “and”; a condition that tells them apart may be missing. Equal values may be shown once.

Test: Henry solubility constant Hcp at 298.15 K (mol/(m3 Pa))
Settings: cited value
[1] = reference: Gaffney and Senum (1984)
[2] = reference: Burkholder et al. (2019)
[3] = reference: Barcelo and Hennion (1997)
[4] = reference: Burkholder et al. (2015)
[5] = reference: Sander et al. (2006)
[6] = reference: Sander et al. (2011)
[7] = reference: Hine and Weimar (1965)
[8] = reference: Fogg and Sangster (2003)

Cc1ccccc1O [1-hydroxy-2-methylbenzene]
Henry solubility constant Hcp (reference: Brockbank (2013)): 6.7
Henry solubility constant Hcp [1]: 8.2
Henry solubility constant Hcp (reference: Howard (1989)): 6.2

CO/N=C(/C(=O)OC)c1ccccc1CO/N=C(\C)c1cccc(C(F)(F)F)c1 [trifloxystrobin]
Henry solubility constant Hcp (reference: MacBean (2012b)): 430

BrC(Br)C(Br)Br [1,1,2,2-tetrabromoethane]
Henry solubility constant Hcp (reference: Brockbank (2013)): 0.014
Henry solubility constant Hcp [2]: 0.014

Nc1ccccc1 [aminobenzene]
Henry solubility constant Hcp (reference: Brockbank (2013)): 4.9

COc1ccc(NC(=O)N(C)C)cc1Cl [metoxuron]
Henry solubility constant Hcp [3]: 6.6

COP(=S)(OC)Oc1ccc([N+](=O)[O-])cc1 [methylparathion]
Henry solubility constant Hcp [3]: 0.47

CCCCCOC(=O)CCC [pentyl butanoate]
Henry solubility constant Hcp (reference: Brockbank (2013)): 0.017

CCCCOCC [1-ethoxy-butane]
Henry solubility constant Hcp (reference: Brockbank (2013)): 0.0076

[H] [hydrogen atom]
Henry solubility constant Hcp [4]: 2.6e-06
Henry solubility constant Hcp [2]: 2.6e-06
Henry solubility constant Hcp [5]: 2.6e-06
Henry solubility constant Hcp [6]: 2.6e-06

CCC(C)Br (centres undefined) [2-bromobutane]
Henry solubility constant Hcp (reference: Brockbank (2013)): 0.00088

CNC(=O)ON=C(C)SC [methomyl]
Henry solubility constant Hcp [3]: 150

[HH] [hydrogen]
Henry solubility constant Hcp (reference: Himmelblau (1960)): 7.8e-06
Henry solubility constant Hcp [7]: 7.7e-06
Henry solubility constant Hcp (reference: Young (1981a)): 7.7e-06

Cc1ccncc1 [4-methylpyridine]
Henry solubility constant Hcp (reference: Brockbank (2013)): 1.6

Cc1ccccc1N [2-methylbenzenamine]
Henry solubility constant Hcp (reference: Brockbank (2013)): 4.8

C#CCCCCCC [1-octyne]
Henry solubility constant Hcp (reference: Brockbank (2013)): 0.00012

CCNc1nc(Cl)nc(NCC)n1 [simazine]
Henry solubility constant Hcp [3]: 29

CC(C)=O [propanone]
Henry solubility constant Hcp (reference: Brockbank (2013)): 0.29
Henry solubility constant Hcp [4]: 0.27
Henry solubility constant Hcp [2]: 0.27
Henry solubility constant Hcp (reference: Butler and Ramchandani (1935)): 0.3
Henry solubility constant Hcp (reference: Cabani et al. (1981)): 0.27
Henry solubility constant Hcp [8]: 0.26
Henry solubility constant Hcp [1]: 0.3
Henry solubility constant Hcp [7]: 0.031
Henry solubility constant Hcp (reference: Poulain et al. (2010)): 0.33
Henry solubility constant Hcp [5]: 0.28
Henry solubility constant Hcp [6]: 0.27
Henry solubility constant Hcp (reference: Schaffer and Daubert (1969)): 0.22

CCOCCOC(C)=O [2-ethoxyethyl ethanoate]
Henry solubility constant Hcp (reference: Brockbank (2013)): 3

CN(C)C [trimethylamine]
Henry solubility constant Hcp [4]: 0.099
Henry solubility constant Hcp [2]: 0.099

CCOP(=S)(NC(C)C)Oc1ccccc1C(=O)OC(C)C (centres undefined) [isofenphos]
Henry solubility constant Hcp [3]: 1000
Henry solubility constant Hcp (reference: MacBean (2012b)): 240

CCOC(=O)c1ccccc1 [ethyl benzoate]
Henry solubility constant Hcp (reference: Brockbank (2013)): 0.17

C=CCN(CC=C)CC=C [N,N-di-2-propenyl-2-propen-1-amine]
Henry solubility constant Hcp (reference: Brockbank (2013)): 0.039

c1ccc(Nc2ccccc2)cc1 [diphenylamine]
Henry solubility constant Hcp (reference: Howard et al. (1991)): 3.5

Brc1ccc(Oc2ccc(Br)cc2Br)c(Br)c1 [2,2',4,4'-tetrabromodiphenyl ether]
Henry solubility constant Hcp (reference: Wania and Dugani (2003)): 0.9

COCOC [dimethoxymethane]
Henry solubility constant Hcp (reference: Brockbank (2013)): 0.061
Henry solubility constant Hcp (reference: Pierotti et al. (1959)): 0.057

CCOC(=O)C(C)(C)C [ethyl 2,2-dimethylpropanoate]
Henry solubility constant Hcp (reference: Brockbank (2013)): 0.0064

CCCCCC(C)O (centres undefined) [2-heptanol]
Henry solubility constant Hcp (reference: Brockbank (2013)): 0.33

C=CC=O [propenal]
Henry solubility constant Hcp (reference: Brockbank (2013)): 0.072
Henry solubility constant Hcp [1]: 0.081
Henry solubility constant Hcp (reference: Goldstein (1982)): 0.1
Henry solubility constant Hcp (reference: Howard (1989)): 2.2

O=COCc1ccccc1 [benzyl methanoate]
Henry solubility constant Hcp (reference: Brockbank (2013)): 2

CNC(=O)ON=C(SC)C(=O)N(C)C [oxamyl]
Henry solubility constant Hcp [3]: 38

c1cc2c3c(cccc3c1)CC2 [acenaphthene]
Henry solubility constant Hcp (reference: Brockbank (2013)): 0.072
Henry solubility constant Hcp [8]: 0.055
Henry solubility constant Hcp (reference: Goldstein (1982)): 0.041
Henry solubility constant Hcp (reference: HSDB (2015)): 0.064
Henry solubility constant Hcp (reference: McCarty (1980)): 0.052

CCC(C)CO (centres undefined) [2-methyl-1-butanol]
Henry solubility constant Hcp (reference: Brockbank (2013)): 0.76

ClCc1ccccc1 [(chloromethyl)-benzene]
Henry solubility constant Hcp (reference: Brockbank (2013)): 0.022

ClC(Cl)(Cl)C(Cl)(Cl)Cl [hexachloroethane]
Henry solubility constant Hcp (reference: Brockbank (2013)): 0.0028
Henry solubility constant Hcp [4]: 0.0026
Henry solubility constant Hcp [2]: 0.0027
Henry solubility constant Hcp (reference: Goldstein (1982)): 0.001

CCCCCC [hexane]
Henry solubility constant Hcp (reference: Brockbank (2013)): 5.7e-06

CCCC(C)C [2-methylpentane]
Henry solubility constant Hcp (reference: Brockbank (2013)): 6.4e-06

CC(C)C(C)C(C)C [2,3,4-trimethylpentane]
Henry solubility constant Hcp (reference: Brockbank (2013)): 3.3e-06

Cc1ccc(N=CN(C)C=Nc2ccc(C)cc2C)c(C)c1 [amitraz]
Henry solubility constant Hcp (reference: MacBean (2012b)): 1

CCC(C)(C)CC [3,3-dimethylpentane]
Henry solubility constant Hcp (reference: Brockbank (2013)): 5.6e-06

CCSCC [diethyl sulfide]
Henry solubility constant Hcp [4]: 0.0035
Henry solubility constant Hcp [2]: 0.0035

CC1(C(=O)Nc2ccc(O)c(Cl)c2Cl)CCCCC1 [fenhexamid]
Henry solubility constant Hcp (reference: MacBean (2012b)): 200000

C1=CCCC1 [cyclopentene]
Henry solubility constant Hcp (reference: Brockbank (2013)): 0.0002

Cc1ccc(C)c(O)c1 [1-hydroxy-2,5-dimethylbenzene]
Henry solubility constant Hcp (reference: Brockbank (2013)): 8.2

CCCCCCN [1-hexanamine]
Henry solubility constant Hcp (reference: Brockbank (2013)): 0.35

CCCCCOC=O [pentyl methanoate]
Henry solubility constant Hcp (reference: Brockbank (2013)): 0.017

CCCCOC=O [butyl methanoate]
Henry solubility constant Hcp (reference: Brockbank (2013)): 0.026

CCCC(C)=O [2-pentanone]
Henry solubility constant Hcp (reference: Brockbank (2013)): 0.13
Henry solubility constant Hcp (reference: Mackay et al. (1995)): 0.17

O=[N+]([O-])c1ccc(Cl)cc1 [4-chloronitrobenzene]
Henry solubility constant Hcp (reference: Brockbank (2013)): 0.64

Cc1cccs1 [2-methylthiophene]
Henry solubility constant Hcp (reference: Brockbank (2013)): 0.0041

ClNCl [dichloramine]
Henry solubility constant Hcp [4]: 0.29
Henry solubility constant Hcp [2]: 0.29
Henry solubility constant Hcp [5]: 0.29
Henry solubility constant Hcp [6]: 0.29

CCCCCCCC(C)O (centres undefined) [2-nonanol]
Henry solubility constant Hcp (reference: Brockbank (2013)): 0.21

[CH3][Hg][CH3] [dimethylmercury]
Henry solubility constant Hcp (reference: Abraham et al. (2008)): 0.0021
Henry solubility constant Hcp (reference: WHO (1990)): 0.0013

COC(=O)Nc1cccc(OC(=O)Nc2cccc(C)c2)c1 [phenmedipham]
Henry solubility constant Hcp [3]: 120000

C=CCCCCCCCCCCCC [1-tetradecene]
Henry solubility constant Hcp (reference: Brockbank (2013)): 3e-06

[N]=O [nitrogen monoxide]
Henry solubility constant Hcp (reference: Loomis (1928)): 1.9e-05
Henry solubility constant Hcp [5]: 1.9e-05
Henry solubility constant Hcp [6]: 1.9e-05
Henry solubility constant Hcp (reference: Schwartz and White (1981)): 1.9e-05
Henry solubility constant Hcp (reference: Young (1981b)): 1.9e-05

ClCCl [dichloromethane]
Henry solubility constant Hcp (reference: Brockbank (2013)): 0.0037
Henry solubility constant Hcp [4]: 0.0039
Henry solubility constant Hcp [2]: 0.0039
Henry solubility constant Hcp (reference: Dilling (1977)): 0.0037
Henry solubility constant Hcp (reference: Dilling et al. (1975)): 0.0037
Henry solubility constant Hcp (reference: Goldstein (1982)): 0.0031
Henry solubility constant Hcp (reference: Harrison et al. (1993)): 0.0042 and 0.0034
Henry solubility constant Hcp [5]: 0.0036
Henry solubility constant Hcp [6]: 0.0036

CCCCCCc1ccccc1 [hexylbenzene]
Henry solubility constant Hcp (reference: Brockbank (2013)): 0.0004

FC(F)OC(Cl)C(F)(F)F (centres undefined) [1-chloro-2,2,2-trifluoroethyl difluoromethyl ether]
Henry solubility constant Hcp [8]: 0.00024

CCc1cccc(C)c1N(C(=O)CCl)C(C)COC (centres undefined) [metolachlor]
Henry solubility constant Hcp [3]: 11
Henry solubility constant Hcp [8]: 620
Henry solubility constant Hcp (reference: Muir et al. (2004)): 750 and 720
Henry solubility constant Hcp (reference: Rice et al. (1997b)): 1200

CCC(C)OC(C)=O (centres undefined) [2-butyl ethanoate]
Henry solubility constant Hcp (reference: Brockbank (2013)): 0.023

CN(C)C(=S)SSC(=S)N(C)C [thiram]
Henry solubility constant Hcp (reference: MacBean (2012b)): 30

[C-]#[O+] [carbon monoxide]
Henry solubility constant Hcp [4]: 9.7e-06
Henry solubility constant Hcp [2]: 9.7e-06
Henry solubility constant Hcp [5]: 9.7e-06
Henry solubility constant Hcp [6]: 9.7e-06

FC(F)OC(F)(F)C(F)Cl (centres undefined) [2-chloro-1,1,2-trifluoroethyl difluoromethyl ether]
Henry solubility constant Hcp [8]: 0.0003
